Measured values reported in patent publication US20250241297A1, “TERNARY SOLVENT SYSTEMS FOR STABLE PLANT GROWTH REGULATOR FORMULATIONS” (priority 2024, published 2025).
Like-named read-outs stand apart in the source and are kept apart here.

Assays:
[1] = Storage stability of aqueous formulation CE1, PGR content after 1 year; format: physicochemical; settings: in aqueous formulation CE1, 1 year of storage
Method: Comparative Example 1: A combination of three PGRs (kinetin, GA3, and IBA) were dissolved in water along with a defoamer and a phosphate ester surfactant at the ratios specified in Table CE1: […] This is typical behavior for an aqueous system containing these PGRs.

[2] = Accelerated aging test of formulation E1, 54° C. for 2 weeks; format: physicochemical; settings: for 2-Weeks at 54° C.: in formulation E1, after 2 weeks at 54° C.; for Initial Assay: in formulation E1, before accelerated aging; for Percent Change: in formulation E1, initial vs 2 weeks at 54° C.
Method: Example 1 (E1): A combination of three PGRs (kinetin, GA3, and IBA) were dissolved in a ternary solvent system containing a high dielectric solvent (DMSO), a medium dielectric solvent (HALLCOMID® M-8-10), and a low dielectric solvent (methyl soyate) with surfactants (ETHOX® CO-40 and ETHFAC® 140) at the ratios specified in Table E1:
The formulation was tested in an accelerated aging test by storing the sample at 54° C. for 2 weeks and measuring the content of the PGRs before and after testing. This was to follow the EPA's Office of Pesticide Programs guidelines for product chemistry and stability.
Table 2 illustrates initial formulation stability and stability at two-weeks as a percentage change in the amount (vol. %) of each PGR: […]

[3] = Solubility of PGRs in solvents
Description: In some examples, the ratios of the plurality of non-aqueous solvents may be selected based on a relative amount and type of PGR compound selected for the agrochemical formulation. For example, an amount (e.g., vol. %) of a high dielectric solvent may be selected to fully dissolve selected amounts (e.g., vol. %) of one or more PGRs of the plurality of selected PGRs, which may only be soluble, or at least more soluble in, the high dielectric solvent. Additionally, an amount of (e.g., vol. %) of a medium dielectric solvent and/or a low dielectric solvent may be selected for similar reasons.

[4] = cited from earlier work

detected level of active ingredient after 1 year of storage [1]	loss of active ingredient after 1 year of storage [1]	2-Weeks at 54° C. [2]	Initial Assay [2]	Percent Change [2]	solubility in DMSO [3]	solubility in vegetable oil or modified vegetable oil solvents [3]	Compound	solubility in DMSO ([3]; DMSO)	solubility in vegetable oil or modified vegetable oil solvents ([3]; vegetable oil or modified vegetable oil solvents)	chemical breakdown in water [4]
not detected	100%	0.047%	0.047%	0.00%	–	–	O=C(O)CCCc1c[nH]c2ccccc12 [IBA, indole-3-butyric acid]	–	–	facilitates the chemical breakdown
0.0015%	83%	0.090%	0.099%	9.09%	3.3%	virtually insoluble	c1coc(CNc2ncnc3[nH]cnc23)c1 [kinetin]	–	–	–

Compound	detected level of active ingredient after 1 year of storage [1]	loss of active ingredient after 1 year of storage [1]	2-Weeks at 54° C. [2]	Initial Assay [2]	Percent Change [2]	solubility in DMSO [3]	solubility in vegetable oil or modified vegetable oil solvents [3]	solubility in DMSO ([3]; DMSO)	solubility in vegetable oil or modified vegetable oil solvents ([3]; vegetable oil or modified vegetable oil solvents)	chemical breakdown in water [4]
C=C1C[C@]23C[C@@]1(O)CC[C@H]2[C@@]12C=C[C@H](O)[C@@](C)(C(=O)O1)[C@@H]2[C@@H]3C(=O)O [GA3, (3S,3aS,4S,4aS,7S,9aR,9bR,12S)-7,12-Dihydroxy-3-methyl-6-methylene-2-oxoperhydro-4a,7-methano-9b,3-propenoazuleno[1,2-b]furan-4-carboxylic acid]	0.0005%	91%	0.055%	0.058%	5.17%	–	–	1.5%	virtually insoluble	–
